{"source": "patent US12392778B2", "about": "“Method for proteome-wide discovery of covalent ligands and compositions thereof” (BridGene Biosciences, Inc., priority 2019, dated 2025)", "system": "SK-MEL-28 tumor cells", "assay": "Melanoma CDX model, SK-MEL-28 tumor growth", "format": "in vivo, BALB/c nude mice", "conditions": "60 mg/kg subcutaneously twice a day for 5 days, then once a day for 9 days; not statistically significant", "procedure": "For this model, BALB/c nude mice were inoculated subcutaneously (sc) with SK-MEL-28 tumor cells (5×10^6 in 0.1 mL PBS and Matigel, 1:1). […] Throughout the treatment period, tumor sizes were recorded. […] Vehicle control consisted of 5% DMSO and 95% of a 20% 2-hydroxypropyl-beta-cyclodextrin solution. Eight female mice were included in each group. t-test was done using GraphPad Software."}
{"compound": "C#CCOc1cccc(Nc2ncnc3ccc(NC(=O)CCl)cc23)c1", "note": "[Compound 1]", "values": [{"measurement": "Tumor size compared to control", "result": "reduce tumor size compared to control starting at day 8"}]}
